# How the values were obtained:
# CDK2/Cyclin E2 = biological target: T1, CDK2/Cyclin E2 (Homo sapiens, UniProt P24941); assay: CDK2/CyclinE2 Enzymatic Activity Assay (TR-FRET); type: biochemical; conditions: ATP 1 mM final, read-out: CDK2_E1 IC50
# T1 construct: Recombinant protein complex CDK2/Cyclin E2, expressed from insect cell, was purchased from ProQinase
# In short: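 Recombinant insect-cell CDK2/Cyclin E2 (1 nM) phosphorylated ULight-4E-BP1 (50 nM) with 1 mM ATP in HEPES pH 7.4 buffer, after 20 min compound preincubation; MgCl2 (10 mM) started the 45 min reaction at 37° C. Europium anti-phospho-4E-BP1 TR-FRET read; 9-dose IC50 by 4-parameter fit.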
# OVCAR3 p-RB = assay: pRB ICW Assay in OVCAR3 Cells; type: cell-based; conditions: Homo sapiens, OVCAR-3, incubated with compound for 2 hours
# In short: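 In-Cell Western on OVCAR3: phospho-RB antibody signal with DRAQ5 counterstain read at 700 and 800 nm after fixation. Compounds were applied for 2 h at 37° C. as 9-point ½-log dilutions in duplicate; 10 μM reference compound defined full inhibition.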
# CDK4/Cyclin D1 = biological target: T2, CDK4/Cyclin D1 (Homo sapiens, UniProt P11802); assay: CDK4/CyclinD1 Enzymatic Activity Assay (TR-FRET); type: biochemical; conditions: ATP 2 mM final, read-out: CDK4_D1 IC50
# T2 construct: purchased ProQinase; host or cells: insect cell
# T2 sequence (P11802 whole entry): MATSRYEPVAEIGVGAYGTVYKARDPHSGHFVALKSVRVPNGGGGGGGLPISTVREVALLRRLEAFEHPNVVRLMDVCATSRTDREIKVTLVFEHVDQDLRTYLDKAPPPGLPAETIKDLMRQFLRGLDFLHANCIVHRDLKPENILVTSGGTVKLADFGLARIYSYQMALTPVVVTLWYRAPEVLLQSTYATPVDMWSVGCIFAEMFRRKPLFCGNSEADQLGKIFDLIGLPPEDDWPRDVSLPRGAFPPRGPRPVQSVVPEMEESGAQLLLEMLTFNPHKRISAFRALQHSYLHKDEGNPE
# T2 sequence (P24385 whole entry partner): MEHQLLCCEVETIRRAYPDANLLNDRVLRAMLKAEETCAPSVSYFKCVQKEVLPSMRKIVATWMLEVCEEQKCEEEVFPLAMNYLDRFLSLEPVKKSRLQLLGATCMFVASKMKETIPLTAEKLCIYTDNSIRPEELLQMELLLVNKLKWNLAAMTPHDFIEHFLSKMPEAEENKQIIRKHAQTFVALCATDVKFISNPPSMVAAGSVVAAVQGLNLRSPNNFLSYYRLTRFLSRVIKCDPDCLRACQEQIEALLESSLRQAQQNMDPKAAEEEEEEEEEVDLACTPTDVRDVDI
# In short: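 Insect-cell-expressed CDK4/Cyclin D1 (1 nM) with ULight-4E-BP1 (100 nM) and 2 mM ATP in HEPES pH 7.4; 9-dose 3-fold compound series preincubated 20 min, reaction started with 10 mM MgCl2, 45 min at 37° C. Europium anti-P-4E-BP1 TR-FRET read; IC50 from 4-parameter Hill fit.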
SMILES,IC50 (CDK2/Cyclin E2) [µM],IC50 (OVCAR3 p-RB) [µM],IC50 (CDK4/Cyclin D1) [µM]
"CC(O)c1cnc(-c2nc(NC3CCN(S(=O)(=O)c4cn(C)cn4)CC3)ncc2C(F)(F)F)s1 (stereo not drawn) [Example 63, 1-(2-(2-((1-((1-methyl-1H-imidazol-4-yl)sulfonyl)piperidin-4-yl)amino)-5-(trifluoromethyl)pyrimidin-4-yl)thiazol-5-yl)ethan-1-ol]",≤ 0.1,≤ 0.1,≤ 0.1
"Cc1cnc(-c2nc(N[C@H]3CCN(S(=O)(=O)c4cn(C)cn4)C[C@H]3C)ncc2C(F)(F)F)s1 [Example 64, N-((3R,4S)-3-methyl-1-((1-methyl-1H-imidazol-4-yl)sulfonyl)piperidin-4-yl)-4-(5-methylthiazol-2-yl)-5-(trifluoromethyl)pyrimidin-2-amine]",≤ 0.1,> 0.5,0.1 to 0.5
"Cc1cnc(-c2nc(NC3CCN(S(C)(=O)=O)CC3)ncc2C(F)(F)F)s1 [Example 65, N-(1-(methylsulfonyl)piperidin-4-yl)-4-(5-methylthiazol-2-yl)-5-(trifluoromethyl)pyrimidin-2-amine]",≤ 0.1,0.1 to 0.5,≤ 0.1
"Cn1cnc(S(=O)(=O)N2CC[C@@H](Nc3ncc(C(F)(F)F)c(-c4cc(C(N)=O)ns4)n3)[C@H](F)C2)c1 [Example 66, 5-(2-(((3R,4R)-3-fluoro-1-((1-methyl-1H-imidazol-4-yl)sulfonyl)piperidin-4-yl)amino)-5-(trifluoromethyl)pyrimidin-4-yl)isothiazole-3-carboxamide]",≤ 0.1,≤ 0.1,≤ 0.1
"Cn1cnc(S(=O)(=O)N2CC[C@H](Nc3ncc(C(F)(F)F)c(-c4cc(C(N)=O)ns4)n3)[C@H](F)C2)c1 [Example 67, 5-(2-(((3R,4S)-3-fluoro-1-((1-methyl-1H-imidazol-4-yl)sulfonyl)piperidin-4-yl)amino)-5-(trifluoromethyl)pyrimidin-4-yl)isothiazole-3-carboxamide]",≤ 0.1,≤ 0.1,≤ 0.1
"CC(O)c1sc(-c2nc(N[C@H]3CCN(S(=O)(=O)c4c[nH]cn4)C[C@H]3C)ncc2C(F)(F)F)cc1C#N (stereo partly drawn) [Example 68, 5-(2-(((3R,4S)-1-((1H-imidazol-4-yl)sulfonyl)-3-methylpiperidin-4-yl)amino)-5-(trifluoromethyl)pyrimidin-4-yl)-2-(1-hydroxyethyl)thiophene-3-carbonitrile]",≤ 0.1,0.1 to 0.5,0.1 to 0.5
"Cn1cc(S(=O)(=O)N2CCC(Nc3ncc(C(F)(F)F)c(-c4cc(C#N)cs4)n3)CC2)cn1 [Example 69, 5-(2-((1-((1-Methyl-1H-pyrazol-4-yl)sulfonyl)piperidin-4-yl)amino)-5-(trifluoromethyl)pyrimidin-4-yl)thiophene-3-carbonitrile]",≤ 0.1,≤ 0.1,0.1 to 0.5
"Cc1sc(-c2nc(NC3CCN(S(C)(=O)=O)CC3)ncc2C(F)(F)F)cc1C(N)=O [Example 70, 2-methyl-5-(2-((1-(methylsulfonyl)piperidin-4-yl)amino)-5-(trifluoromethyl)pyrimidin-4-yl)thiophene-3-carboxamide]",≤ 0.1,≤ 0.1,≤ 0.1
"Cc1sc(-c2nc(NC3CCN(S(=O)(=O)c4cnn(C)c4)CC3)ncc2C(F)(F)F)cc1C(N)=O [Example 71, 2-methyl-5-(2-((1-((1-methyl-1H-pyrazol-4-yl)sulfonyl)piperidin-4-yl)amino)-5-(trifluoromethyl)pyrimidin-4-yl)thiophene-3-carboxamide]",≤ 0.1,≤ 0.1,≤ 0.1
"Cc1sc(-c2nc(NC3CCN(S(=O)(=O)c4cnn(C)c4)CC3)ncc2C(F)(F)F)cc1C#N [Example 72, 2-methyl-5-(2-((1-((1-methyl-1H-pyrazol-4-yl)sulfonyl)piperidin-4-yl)amino)-5-(trifluoromethyl)pyrimidin-4-yl)thiophene-3-carbonitrile]",≤ 0.1,≤ 0.1,≤ 0.1
"CS(=O)(=O)N1CCC(Nc2ncc(C(F)(F)F)c(-c3cc(C(N)=O)cs3)n2)CC1 [Example 73, 5-(2-((1-(methylsulfonyl)piperidin-4-yl)amino)-5-(trifluoromethyl)pyrimidin-4-yl)thiophene-3-carboxamide]",≤ 0.1,≤ 0.1,≤ 0.1
"Cn1cc(S(=O)(=O)N2CCC(Nc3ncc(C(F)(F)F)c(-c4cc(C(N)=O)cs4)n3)CC2)cn1 [Example 74, 5-(2-((1-((1-methyl-1H-pyrazol-4-yl)sulfonyl)piperidin-4-yl)amino)-5-(trifluoromethyl)pyrimidin-4-yl)thiophene-3-carboxamide]",≤ 0.1,≤ 0.1,≤ 0.1
"COc1cc(-c2nc(NC3CCN(S(=O)(=O)c4cn(C)cn4)CC3)ncc2C(F)(F)F)sc1C [Example 75, 4-(4-methoxy-5-methylthiophen-2-yl)-N-(1-((1-methyl-1H-imidazol-4-yl)sulfonyl)piperidin-4-yl)-5-(trifluoromethyl)pyrimidin-2-amine]",≤ 0.1,> 0.5,> 0.5
"COc1cc(-c2nc(NC3CCN(S(C)(=O)=O)CC3)ncc2C(F)(F)F)sc1C [Example 76, 4-(4-methoxy-5-methylthiophen-2-yl)-N-(1-(methylsulfonyl)piperidin-4-yl)-5-(trifluoromethyl)pyrimidin-2-amine]",0.1 to 0.5,> 0.5,0.1 to 0.5

# Continued, values first:
IC50 (CDK2/Cyclin E2) [µM],IC50 (OVCAR3 p-RB) [µM],IC50 (CDK4/Cyclin D1) [µM],SMILES
≤ 0.1,> 0.5,> 0.5,"Cc1cc(-c2nc(NC3CCN(S(=O)(=O)c4cnn(C)c4)CC3)ncc2C(F)(F)F)sn1 [Example 77, N-(1-((1-methyl-1H-pyrazol-4-yl)sulfonyl)piperidin-4-yl)-4-(3-methylisothiazol-5-yl)-5-(trifluoromethyl)pyrimidin-2-amine]"
0.1 to 0.5,> 0.5,> 0.5,"Cc1cc(-c2nc(NC3CCN(S(C)(=O)=O)CC3)ncc2C(F)(F)F)sn1 [Example 78, 4-(3-methylisothiazol-5-yl)-N-(1-(methylsulfonyl)piperidin-4-yl)-5-(trifluoromethyl)pyrimidin-2-amine]"
≤ 0.1,0.1 to 0.5,≤ 0.1,"Cc1sc(-c2nc(NC3CCN(S(=O)(=O)c4cnn(C)c4)CC3)ncc2C(F)(F)F)cc1C(F)F [Example 79, 4-(4-(difluoromethyl)-5-methylthiophen-2-yl)-N-(1-((1-methyl-1H-pyrazol-4-yl)sulfonyl)piperidin-4-yl)-5-(trifluoromethyl)pyrimidin-2-amine]"
≤ 0.1,0.1 to 0.5,≤ 0.1,"Cc1sc(-c2nc(NC3CCN(S(C)(=O)=O)CC3)ncc2C(F)(F)F)cc1C(F)F [Example 80, 4-(4-(difluoromethyl)-5-methylthiophen-2-yl)-N-(1-(methylsulfonyl)piperidin-4-yl)-5-(trifluoromethyl)pyrimidin-2-amine]"
≤ 0.1,≤ 0.1,≤ 0.1,"CC(=O)c1cc(-c2nc(NC3CCN(S(=O)(=O)c4cnn(C)c4)CC3)ncc2C(F)(F)F)sc1C [Example 81, 1-(2-methyl-5-(2-((1-((1-methyl-1H-pyrazol-4-yl)sulfonyl)piperidin-4-yl)amino)-5-(trifluoromethyl)pyrimidin-4-yl)thiophen-3-yl)ethan-1-one]"
≤ 0.1,> 0.5,0.1 to 0.5,"COCc1cc(-c2nc(NC3CCN(S(=O)(=O)c4cnn(C)c4)CC3)ncc2C(F)(F)F)sc1C [Example 82, 4-(4-(methoxymethyl)-5-methylthiophen-2-yl)-N-(1-((1-methyl-1H-pyrazol-4-yl)sulfonyl)piperidin-4-yl)-5-(trifluoromethyl)pyrimidin-2-amine]"
≤ 0.1,0.1 to 0.5,≤ 0.1,"Cc1sc(-c2nc(NC3CCN(S(C)(=O)=O)CC3)ncc2C(F)(F)F)cc1C#N [Example 83, 2-methyl-5-(2-((1-(methylsulfonyl)piperidin-4-yl)amino)-5-(trifluoromethyl)pyrimidin-4-yl)thiophene-3-carbonitrile]"
≤ 0.1,≤ 0.1,≤ 0.1,"CS(=O)(=O)N1CCC(Nc2ncc(C(F)(F)F)c(-c3cc(C(N)=O)ns3)n2)CC1 [Example 84, 5-(2-((1-(methylsulfonyl)piperidin-4-yl)amino)-5-(trifluoromethyl)pyrimidin-4-yl)isothiazole-3-carboxamide]"
≤ 0.1,0.1 to 0.5,0.1 to 0.5,"Cc1sc(-c2nc(N[C@H]3CCN(S(=O)(=O)c4cnn(C)c4)C[C@H]3C)ncc2C(F)(F)F)cc1C#N [Example 85, 2-methyl-5-(2-(((3R,4S)-3-methyl-1-((1-methyl-1H-pyrazol-4-yl)sulfonyl)piperidin-4-yl)amino)-5-(trifluoromethyl)pyrimidin-4-yl)thiophene-3-carbonitrile]"
≤ 0.1,> 0.5,> 0.5,"Cc1sc(-c2nc(N[C@H]3CCN(S(=O)(=O)c4c[nH]cn4)C[C@H]3C)ncc2C(F)(F)F)cc1C#N [Example 86, 5-(2-(((3R,4S)-1-((1H-imidazol-4-yl)sulfonyl)-3-methylpiperidin-4-yl)amino)-5-(trifluoromethyl)pyrimidin-4-yl)-2-methylthiophene-3-carbonitrile]"
